In ChEMBL document CHEMBL1201862, “PubChem BioAssay data set” (2004):
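Grown in 96-well plates, cells were treated for 48 hours with each compound at five concentrations. Insufficient inhibition: endpoint recorded as highest concentration tested. GI50: concentration for 50% inhibition of growth.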 The source made the active and inactive calls. Cut-off read from the data, not from the text of the source: active = GI50 up to about 1.1 µM and inactive = higher.

Key:
Assay in all cases: NCI anticancer screen, dose series, 48 h
HOP-62 = test system: HOP-62
SN12C = test system: SN12C
TK-10 = test system: TK-10
T47D = test system: T47D
SF-268 = test system: SF-268
M14 = test system: M14
NCI/ADR-RES = test system: NCI/ADR-RES
NCI-H23 = test system: NCI-H23
EKVX = test system: EKVX
HCT-15 = test system: HCT-15
NCI-H522 = test system: NCI-H522
SNB-19 = test system: SNB-19
SW-620 = test system: SW-620
HCT-116 = test system: HCT-116
U-251 = test system: U-251
NCI-H226 = test system: NCI-H226
KM12 = test system: KM12
HT-29 = test system: HT-29
SF-295 = test system: SF-295

Row | Structure (SMILES) | GI50 (HOP-62) | GI50 (SN12C) | GI50 (TK-10) | GI50 (T47D) | GI50 (SF-268) | GI50 (M14) | GI50 (NCI/ADR-RES) | GI50 (NCI-H23) | GI50 (EKVX) | GI50 (HCT-15) [µM] | GI50 (NCI-H522) | GI50 (SNB-19) | GI50 (SW-620) | GI50 (HCT-116) | GI50 (U-251) | GI50 (NCI-H226) | GI50 (KM12) | GI50 (HT-29) | GI50 (SF-295)
1 | CC1CC[C@@]2(OC1)O[C@H]1[C@H](O)[C@H]3[C@@H]4CC[C@H]5C[C@@H](OC6OC(CO)C(OC7OC(CO)C(O)C(OC8OCC(O)C(O)C8O)C7OC7OC(CO)C(O)C(O)C7OC7OC(CO)C(O)C(O)C7O)C(O)C6O)[C@H](O)C[C@]5(C)[C@H]4CC[C@]3(C)[C@H]1[C@@H]2C (stereo partly specified) | > 10 µM (inactive) | 3.89 µM (inactive) | > 10 µM (inactive) | > 10 µM (inactive) | > 10 µM (inactive) | > 10 µM (inactive) | > 10 µM (inactive) | 5.24 µM (inactive) | > 10 µM (inactive) | > 10 | 2.78 µM (inactive) | 9.35 µM (inactive) | > 10 µM (inactive) | 4.59 µM (inactive) | 5.01 µM (inactive) | > 10 µM (inactive) | 4.29 µM (inactive) | > 10 µM (inactive) | 
2 | CC1(C)S[C@@H]2[C@H](N3C(=O)c4ccccc4C3=O)CN2[C@H]1NC(=O)N[C@@H]1N2C[C@@H](N3C(=O)c4ccccc4C3=O)[C@H]2SC1(C)C | 48.8 µM (inactive) | > 100 µM (inactive) | 77.1 µM (inactive) | > 100 µM (inactive) | 28.9 µM (inactive) | > 100 µM (inactive) | > 100 µM (inactive) | > 100 µM (inactive) |  | > 100 | > 100 µM (inactive) | 43.2 µM (inactive) | > 100 µM (inactive) | > 100 µM (inactive) | 27 µM (inactive) | > 100 µM (inactive) | > 100 µM (inactive) | > 100 µM (inactive) | 75.7 µM (inactive)
3 | O=C1/C(=C/c2ccccc2S)N=C(c2ccccc2)N1c1nc2ccc(Sc3ccccc3)cc2[nH]1 | 41.9 µM (inactive) | 26.4 µM (inactive) | 27 µM (inactive) | 28.8 µM (inactive) | 38.3 µM (inactive) | 20.4 µM (inactive) | 22 µM (inactive) | 37 µM (inactive) | 46.6 µM (inactive) | 31.9 | 22.8 µM (inactive) | 45.3 µM (inactive) | 29.9 µM (inactive) | 33.4 µM (inactive) | 21.3 µM (inactive) |  | 27.6 µM (inactive) | 20.2 µM (inactive) | 27.4 µM (inactive)
4 | Cc1cc(-c2ccc(Cl)cc2)c(C#N)c(=S)n1C1OC(CO)C(O)C(O)C1O (stereo unspecified) | > 100 µM (inactive) | > 100 µM (inactive) | > 100 µM (inactive) | 99.8 µM (inactive) | > 100 µM (inactive) | > 100 µM (inactive) | > 100 µM (inactive) | > 100 µM (inactive) | > 100 µM (inactive) | > 100 | > 100 µM (inactive) | > 100 µM (inactive) | > 100 µM (inactive) | > 100 µM (inactive) |  | > 100 µM (inactive) | > 100 µM (inactive) | > 100 µM (inactive) | > 100 µM (inactive)
5 | O=C(NCCNCCO)N/N=C/c1ccc([N+](=O)[O-])cc1 | > 100 µM (inactive) | > 100 µM (inactive) | 90.8 µM (inactive) | > 100 µM (inactive) | > 100 µM (inactive) | > 100 µM (inactive) | > 100 µM (inactive) | > 100 µM (inactive) |  | > 100 | > 100 µM (inactive) | > 100 µM (inactive) | > 100 µM (inactive) | > 100 µM (inactive) | > 100 µM (inactive) | > 100 µM (inactive) | > 100 µM (inactive) | > 100 µM (inactive) | > 100 µM (inactive)
6 | Clc1ccccc1/C=C\C1(c2ccccc2)OCCO1 | 22.3 µM (inactive) | 18.1 µM (inactive) | 22.2 µM (inactive) | 26.9 µM (inactive) | 13.1 µM (inactive) | > 100 µM (inactive) | 16.4 µM (inactive) | 10.2 µM (inactive) | 19.1 µM (inactive) | 12.6 | 13.4 µM (inactive) |  | 16.1 µM (inactive) | 12.3 µM (inactive) | 12.2 µM (inactive) | 27.1 µM (inactive) | 11 µM (inactive) | 15.8 µM (inactive) | 16.7 µM (inactive)
7 | O=C(/C=C/c1ccc2ccccc2c1)NCc1ccc(C(=O)NCc2ccccc2)cc1 | 14.2 µM (inactive) | > 100 µM (inactive) | > 100 µM (inactive) | > 36.3 µM (inactive) | 36.5 µM (inactive) | > 100 µM (inactive) | > 100 µM (inactive) | > 83.4 µM (inactive) | > 100 µM (inactive) |  | > 56.8 µM (inactive) | 35.9 µM (inactive) | > 100 µM (inactive) | > 100 µM (inactive) | > 60 µM (inactive) | 26.3 µM (inactive) | > 100 µM (inactive) | 35.7 µM (inactive) | 34.4 µM (inactive)
